Measured values published in patent US20260285816A1, “Piperazinyl-Modified Quinazolinyl-Aryl Urea Derivative, And Preparation Method And Use Thereof” (Guangxi Normal University, priority 2025, published 2026).

Tests used:
T24 cells = experiment: Cell cycle analysis (PI staining, flow cytometry), T24; assay type: cell-based, human
Protocol: (§1) Tumor cells (T24, UM-UC-3, 143B, BxPC-3) in logarithmic growth phase were inoculated into 70 mm culture dishes. After 70% confluency was reached, medium was replaced and treated with: compound 8-1j, ferroptosis inducer Erastin, or cell cycle blocker paclitaxel (PTX) for a specified duration. Post-incubation, cells were trypsinized, collected, centrifuged, and washed 2 times with pre-cooled phosphate-buffered saline (PBS). Pre-cooled 75% ethanol was added dropwise during vortexing for fixation at −20° C. overnight. After centrifugation (10 min), supernatant was discarded. Cells were rewashed with PBS and centrifuged. Following kit instructions (Beyotime, C1052, China), 0.5 mL staining buffer, 25 μL PI (propidium iodide) stain (20×), and 10 μL RNase A (50×) were mixed per sample. Cells were resuspended in PI staining solution and incubated at 37° C. in dark for 30 min (gentle shaking every 10 min). Samples were filtered through 200-mesh filters, transferred into a flow tube, and analyzed via BD FACSVerse flow cytometer. All experiments were conducted in 3 repeats. Compounds 8-2h and 8-2j were evaluated identically.

human osteosarcoma 143B = experiment: 143B tumor-bearing nude mouse model; assay type: in vivo, nude mice; details: 40 mg/kg oral gavage, every 2 d, 42 d
Protocol: (§2) Experimental method: bladder cancer J82 cells in logarithmic growth phase were trypsinized, collected, and then centrifuged, and resuspended in serum-free DMEM medium after discarding an original medium. Cell density was adjusted, and 0.2 mL cell suspension was subcutaneously inoculated into 5-week-old BALB/c-nu mice (sex-balanced, 18-20 g) under a laminar flow clean bench. Post-inoculation, bleeding at injection sites was monitored. When tumors reached 50-80 mm^3, nude mice with good tumor growth status were randomized into 5 groups (n=6/group) for intraperitoneal administration. Tumor volume and body weight were recorded on Day 0. […] Dosing occurred every 2 d for 42 d. After administering the drug, mice were monitored for diarrhea, anorexia, lethargy, and allergic reactions (e.g., pruritus). The body weight of nude mice was measured every 2 days, and the long and short diameters of the tumors in nude mice were measured by using a vernier caliper, then the recording was finished.
Construction of the human osteosarcoma 143B tumor-bearing nude mouse model followed similar procedures, with identical dosing frequency but administration route changed to oral gavage. Specifically: When tumors reached 60-90 mm^3, mice were randomized into 4 groups (n=6). […]

[1] = tested on: FoxM1, KIF20A, Nrf2, xCT, GPx4, FTH1, HO-1, IRP2, CD71 in bladder cancer T24 cells; experiment: Western blot of cell cycle- and ferroptosis-related proteins; assay type: cell-based, human
Protocol: Experimental method: bladder cancer T24 cells in logarithmic growth phase were inoculated into 100 mm culture dishes. After 70% confluency was reached, medium was replaced and treated with compound 8-1j or ferroptosis inhibitor Fer-1. Post-co-incubation, cells were trypsinized, collected, and washed with pre-cooled PBS. 0.2 mL of RIPA cell lysis buffer was added to each tube, mixed thoroughly, and transferred to a 1.5 mL centrifuge tube, and lysed on ice with agitation for 30 min. Lysates were centrifuged at 12,000 rpm (4° C., 10 min) to collect supernatants. Supernatants were mixed with 5×SDS-PAGE protein loading buffer, heated at 95° C. for 7 min, and stored at −80° C. SDS-PAGE (sodium dodecyl sulfate-polyacrylamide gel electrophoresis) was conducted at 80 V until entry into separating gel, then at 120 V until bromophenol blue reached the gel bottom. Gels were cut according to molecular weight indicated by Marker, transferred to membranes, blocked, and then immune reaction was performed. Protein bands were visualized by an enhanced chemiluminescence (ECL) detection system. Band densities were analyzed using ImageJ software. Three repeated experiments were conducted.

bladder cancer J82 cells = experiment: J82 tumor-bearing nude mouse model; assay type: in vivo, BALB/c-nu mice
Protocol: as §2
0.9% normal saline was added thereto to obtain a solution, which was sterilized under UV light for 30 min. Administration volume was 10 mL/kg per mouse. The preparation contained PEG400 and 0.9% normal saline at a 3:1 volume ratio, with 2% (v/v) DMA.

143B cells = experiment: Cell cycle analysis (PI staining, flow cytometry), 143B; assay type: cell-based, human
Protocol: as §1

BxPC-3 cells = experiment: Cell cycle analysis (PI staining, flow cytometry), BxPC-3; assay type: cell-based, human
Protocol: as §1

[2] = tested on: human pancreatic cancer BxPC-3; experiment: BxPC-3 tumor-bearing nude mouse model; assay type: in vivo, nude mice; design: Tumor growth control, high dose: dose or concentration left out as unconfirmed
[3] = 20 mg/kg intraperitoneal, every 2 d for 42 d

SMILES | Effect of co-administration with PTX on cell cycle (T24 cells; T24, with PTX) | Cell cycle arrest phase (T24 cells; T24 cells (FIG. 44)) | Tumor inhibition (human osteosarcoma 143B) | Ferroptosis-related proteins HO-1, IRP2, and CD71 expression [1] | FoxM1, KIF20A, Nrf2, xCT, GPx4, and FTH1 expression ([1]; concentration-dependently) | Body weight and tolerability observations (bladder cancer J82 cells; [3]) | Tumor growth rates vs. vehicle control and equi-dose positive control (bladder cancer J82 cells; [3]) | Anti-tumor efficacy compared with 9g (A-2) (bladder cancer J82 cells; at 20 mg/kg intraperitoneal) | Cell cycle arrest phase (143B cells; 143B cells (FIG. 46)) | Effect of co-administration with PTX on cell cycle (143B cells; 143B, with PTX) | Cell cycle arrest phase, high concentration (BxPC-3 cells; high concentration (>6 μM)) | Cell cycle arrest phase, low concentration (BxPC-3 cells; low concentration (e.g., 3 μM)) | Effect of co-administration with PTX on cell cycle (BxPC-3 cells; with PTX) | Tumor growth control, high dose [2] | Tumor after continued administration ([2]; high dose, oral gavage, up to 42 d) | Toxicity observations ([2]; oral gavage, gemcitabine 24 mg/kg, 8-2h 12, 24, 36 mg/kg)
COc1cc2ncnc(NCc3cccc(NC(=O)Nc4ccc(C(C)(C)C)cc4)c3)c2cc1OCCCCCCN1CCN(CCN2CCOCC2)CC1 [Compound 8-1j, N-(3-(((7-methoxy-6-((6-(4-(2-morpholinoethyl)piperazin-1-yl)hexyl)oxy)quinazolin-4-yl)amino)methyl)phenyl)-N′-(4-tert-butylphenyl)urea] | Synergistic effects | arrest cell cycle at G2/M phase | significantly stronger tumor inhibition than positive control Apat | upregulating | significantly downregulates | Mild weight loss occurs without anorexia, diarrhea, or pruritus | significantly lower | surpassed that of 9g (A-2) | arrest cell cycle at G2/M phase | Synergistic effects | – | – | – | – | – | –
CCc1cccc(CC)c1NC(=O)Nc1cccc(CNc2ncnc3cc(OC)c(OCCCCCCN4CCC(CN5CCN(c6ccccn6)CC5)CC4)cc23)c1 [Compound 8-2h, N-(3-(((7-methoxy-6-((6-(4-((4-(pyridin-2-yl)piperazin-1-yl)methyl)piperidin-1-yl)hexyl)oxy)quinazolin-4-yl)amino)methyl)phenyl)-N′-(2,6-diethylphenyl)urea] | – | – | – | – | – | – | – | – | – | – | G2/M arrest | G0/G1 arrest | Synergistic effects | controls tumor growth by Day 28 | significantly shrank | no toxicity
